Legend:
Rat M4 = biological target: T1, Rat M4 (Rattus norvegicus, UniProt P08485); experiment: mAChR M4 cell-based functional calcium flux assay (rat M4/Gqi5/CHO cells); conditions: for Emin (rat M4): % ACh maximum at 30 μM
T1 construct: expressed in transfected cells; host or cells: CHO-K1 (ATCC), stably expressing M4 and Gqi5
T1 sequence (P08485 1-478): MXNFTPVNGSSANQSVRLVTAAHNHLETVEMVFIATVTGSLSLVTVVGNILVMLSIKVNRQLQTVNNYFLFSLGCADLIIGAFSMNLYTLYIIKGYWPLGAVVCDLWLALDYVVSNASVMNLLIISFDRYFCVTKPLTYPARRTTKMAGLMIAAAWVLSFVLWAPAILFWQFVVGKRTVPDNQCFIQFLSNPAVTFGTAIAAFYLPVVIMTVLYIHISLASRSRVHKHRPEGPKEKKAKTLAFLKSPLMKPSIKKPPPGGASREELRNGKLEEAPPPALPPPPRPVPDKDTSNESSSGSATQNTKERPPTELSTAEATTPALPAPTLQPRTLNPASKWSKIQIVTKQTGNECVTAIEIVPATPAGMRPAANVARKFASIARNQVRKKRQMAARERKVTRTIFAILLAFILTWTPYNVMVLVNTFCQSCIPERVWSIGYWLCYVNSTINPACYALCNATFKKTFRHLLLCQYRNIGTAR
Outline: (§1)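 CHO-K1 cells stably co-expressing M4 of the given species with chimeric Gqi5 were loaded with Fluo-4 AM and read for calcium flux. Compounds (10-point, 1:3 dilutions) were added first, followed by an acetylcholine EC20 at 143 s and an EC80 at 268 s. IC50 reflects the concentration-dependent fall in the EC80 response, fitted with a four-parameter logistic.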

Human M4 = biological target: T2, Human M4 (Homo sapiens, UniProt P08173); experiment: mAChR M4 cell-based functional calcium flux assay (human M4/Gqi5/CHO cells); conditions: for Emin (human M4): % ACh maximum at 30 μM; for IC50: decrease of the response to an EC80 concentration of acetylcholine
T2 construct: expressed in transfected cells; host or cells: CHO-K1 (ATCC), stably expressing M4 and Gqi5
T2 sequence (P08173 1-479): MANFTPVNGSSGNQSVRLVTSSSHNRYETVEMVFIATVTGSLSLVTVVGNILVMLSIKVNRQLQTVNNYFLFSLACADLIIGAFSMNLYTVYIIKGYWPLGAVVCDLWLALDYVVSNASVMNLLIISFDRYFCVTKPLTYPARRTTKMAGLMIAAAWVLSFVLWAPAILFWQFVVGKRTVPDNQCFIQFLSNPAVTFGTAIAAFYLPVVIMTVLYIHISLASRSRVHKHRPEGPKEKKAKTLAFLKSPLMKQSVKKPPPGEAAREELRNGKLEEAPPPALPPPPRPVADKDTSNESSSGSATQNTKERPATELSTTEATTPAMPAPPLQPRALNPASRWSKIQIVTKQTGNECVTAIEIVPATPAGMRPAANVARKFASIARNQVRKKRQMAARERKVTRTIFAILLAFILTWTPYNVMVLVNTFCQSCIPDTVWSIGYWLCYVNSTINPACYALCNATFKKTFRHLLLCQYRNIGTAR
Outline: as §1

[1] = decrease of the response to an EC80 concentration of acetylcholine

Row | Emin (rat M4) (Rat M4) [%] | IC50 (Rat M4; [1]) [µM] | Emin (human M4) (Human M4) [%] | IC50 (Human M4) [nM] | IC50 (Rat M4; cells printed in μM, decrease of the EC80 acetylcholine response) [µM] | SMILES
1 | 3.44 | 0.0478 | 2.58 | 3.15 |  | Cc1cnn(C)c1-c1ccc(NCC2CC23CCN(CCC(C)(C)C)CC3)nn1 (stereo not shown) [Compound 35, N-[[6-(3,3-dimethylbutyl)-6-azaspiro[2.5]octan-2-yl]methyl]-6-(2,4-dimethylpyrazol-3-yl)pyridazin-3-amine]
2 | 4.52 | 0.0328 | 2.61 | 6.1 |  | Cc1nn(C)c(C)c1-c1ccc(NCC2CC23CCN(CCC(C)(C)C)CC3)nn1 (stereo not shown) [Compound 36, N-[[6-(3,3-dimethylbutyl)-6-azaspiro[2.5]octan-2-yl]methyl]-6-(1,3,5-trimethylpyrazol-4-yl)pyridazin-3-amine]
3 | 4.23 | 0.0593 | 3.00 | 5.29 |  | Cc1noc(C)c1-c1ccc(NCC2CC23CCN(CCC(C)(C)C)CC3)nn1 (stereo not shown) [Compound 37, N-[[6-(3,3-dimethylbutyl)-6-azaspiro[2.5]octan-2-yl]methyl]-6-(3,5-dimethylisoxazol-4-yl)pyridazin-3-amine]
4 | 4.05 | 0.024 | 3.30 | 3.71 |  | Cn1nccc1-c1ccc(NCC2CC23CCN(CCC(C)(C)C)CC3)nn1 (stereo not shown) [Compound 38, N-[[6-(3,3-dimethylbutyl)-6-azaspiro[2.5]octan-2-yl]methyl]-6-(2-methylpyrazol-3-yl)pyridazin-3-amine]
5 | 3.42 | 0.0581 | 2.60 | 13.7 |  | Cn1nc(C(F)(F)F)cc1-c1ccc(NCC2CC23CCN(CCC(C)(C)C)CC3)nn1 (stereo not shown) [Compound 39, N-[[6-(3,3-dimethylbutyl)-6-azaspiro[2.5]octan-2-yl]methyl]-6-[2-methyl-5-(trifluoromethyl)pyrazol-3-yl]pyridazin-3-amine]
6 | 3.40 | 0.0173 | 2.97 | 4.56 |  | CC(=O)Nc1ccc(-c2ccc(NCC3CC34CCN(CCC(C)(C)C)CC4)nn2)cc1 (stereo not shown) [Compound 40, N-[4-[6-[[[6-(3,3-dimethylbutyl)-6-azaspiro[2.5]octan-2-yl]methyl]amino]pyridazin-3-yl]phenyl]acetamide]
7 | 3.33 | 0.105 | 2.24 | 16 |  | CC(C)(C)CCN1CCC2(CC1)CC2CNc1ccc(-c2cccc(F)c2Cl)nn1 (stereo not shown) [Compound 41, 6-(2-chloro-3-fluoro-phenyl)-N-[[6-(3,3-dimethylbutyl)-6-azaspiro[2.5]octan-2-yl]methyl]pyridazin-3-amine]
8 | 2.94 | 0.0497 | 2.88 | 11.2 |  | Cc1ccsc1-c1ccc(NCC2CC23CCN(CCC(C)(C)C)CC3)nn1 (stereo not shown) [Compound 42, N-[[6-(3,3-dimethylbutyl)-6-azaspiro[2.5]octan-2-yl]methyl]-6-(3-methyl-2-thienyl)pyridazin-3-amine]
9 | 3.33 | 0.199 | 2.34 | 23 |  | CC(C)(C)CCN1CCC2(CC1)CC2CNc1ccc(-c2cc(F)ccc2C#N)nn1 (stereo not shown) [Compound 43, 2-[6-[[[6-(3,3-dimethylbutyl)-6-azaspiro[2.5]octan-2-yl]methyl]amino]pyridazin-3-yl]-4-fluoro-benzonitrile]
10 | 3.41 | 0.0478 | 2.73 | 16 |  | CC(C)(C)CCN1CCC2(CC1)CC2CNc1ccc(-c2ccc3ccncc3c2)nn1 (stereo not shown) [Compound 44, N-[[6-(3,3-dimethylbutyl)-6-azaspiro[2.5]octan-2-yl]methyl]-6-(7-isoquinolyl)pyridazin-3-amine]
11 | 3.33 | 0.0539 | 2.89 | 9.08 |  | CC(C)(C)CCN1CCC2(CC1)CC2CNc1ccc(-c2ccc3ncccc3c2)nn1 (stereo not shown) [Compound 45, N-[[6-(3,3-dimethylbutyl)-6-azaspiro[2.5]octan-2-yl]methyl]-6-(6-quinolyl)pyridazin-3-amine]
12 | 3.11 | 0.117 | 3.06 | 12.2 |  | CC(C)(C)CCN1CCC2(CC1)CC2CNc1ccc(-c2ccc3c(c2)OCO3)nn1 (stereo not shown) [Compound 46, 6-(1,3-benzodioxol-5-yl)-N-[[6-(3,3-dimethylbutyl)-6-azaspiro[2.5]octan-2-yl]methyl]pyridazin-3-amine]
13 | 2.90 | 0.39 | 2.97 | 208 |  | CC(C)(C)CCN1CCC2(CC1)CC2CNc1ccc(-c2ccc3ccccc3c2)nn1 (stereo not shown) [Compound 47, N-[[6-(3,3-dimethylbutyl)-6-azaspiro[2.5]octan-2-yl]methyl]-6-(2-naphthyl)pyridazin-3-amine]
14 | 2.26 | 0.387 | 2.63 | 64.4 |  | CC(C)(C)CCN1CCC2(CC1)CC2CNc1ccc(-c2ccccc2OC(F)(F)F)nn1 (stereo not shown) [Compound 48, N-[[6-(3,3-dimethylbutyl)-6-azaspiro[2.5]octan-2-yl]methyl]-6-[2-(trifluoromethoxy)phenyl]pyridazin-3-amine]
15 | 2.44 | 0.0943 | 2.64 | 12.8 |  | CC(C)(C)CCN1CCC2(CC1)CC2CNc1ccc(-c2cnccc2C(F)(F)F)nn1 (stereo not shown) [Compound 49, N-[[6-(3,3-dimethylbutyl)-6-azaspiro[2.5]octan-2-yl]methyl]-6-[4-(trifluoromethyl)-3-pyridyl]pyridazin-3-amine]
16 | 3.70 | 0.0158 | 2.71 | 2.4 |  | Cc1nn(C)cc1-c1ccc(NCC2CC23CCN(CCC(C)(C)C)CC3)nn1 (stereo not shown) [Compound 50, N-[[6-(3,3-dimethylbutyl)-6-azaspiro[2.5]octan-2-yl]methyl]-6-(1,3-dimethylpyrazol-4-yl)pyridazin-3-amine]
17 | 7.13 | 0.808 | 4.31 | 49.5 |  | CCC(C)CN1CCC2(CC1)CC2CNc1ccc(-c2cn(C)nc2C)nn1 (stereo not shown) [Compound 51, 6-(1,3-dimethylpyrazol-4-yl)-N-[[6-(2-methylbutyl)-6-azaspiro[2.5]octan-2-yl]methyl]pyridazin-3-amine]
18 | 5.80 | 0.578 | 3.9 | 18.6 |  | CCCC(C)CN1CCC2(CC1)CC2CNc1ccc(-c2cn(C)nc2C)nn1 (stereo not shown) [Compound 52, 6-(1,3-dimethylpyrazol-4-yl)-N-[[6-(2-methylpentyl)-6-azaspiro[2.5]octan-2-yl]methyl]pyridazin-3-amine]
19 | 75.5 |  | 75.5 |  | > 10 | CCN1CCC2(CC1)CC2CNc1ccc(-c2cn(C)nc2C)nn1 (stereo not shown) [Compound 53, 6-(1,3-dimethylpyrazol-4-yl)-N-[(6-ethyl-6-azaspiro[2.5]octan-2-yl)methyl]pyridazin-3-amine]
20 | 53.6 | 9.49 | 19.4 | 4690 |  | CCCN1CCC2(CC1)CC2CNc1ccc(-c2cn(C)nc2C)nn1 (stereo not shown) [Compound 54, 6-(1,3-dimethylpyrazol-4-yl)-N-[(6-propyl-6-azaspiro[2.5]octan-2-yl)methyl]pyridazin-3-amine]

Reference: patent US12600726B2, “Antagonists of the muscarinic acetylcholine receptor M4” (Vanderbilt University, priority 2017, dated 2026)
